Measured values: patent publication US12157750B2, “Bright targetable red CA2+ indicators” (HOWARD HUGHES MEDICAL INSTITUTE, priority 2019, dated 2024)
Values joined by “and” are separate entries in the source; they are usually repeats but may differ in a detail not shown here. Identical values can stand only once. Like-named read-outs stand apart in the source and are kept apart here.

What was measured:
[1] = system: Primary rat hippocampal neurons; assay: Calcium indicators characterization in primary neuron culture (evoked action potentials); assay type: cell-based; conditions: for ΔF/F0, single AP: 1 AP
Procedure: Synaptic blockers (10 μM CNQX, 10 μM CPP, 10 μM GABAZINE, and 1 mM MCPG) were added to block ionotropic glutamate, GABA, and metabotropic glutamate receptors.^21 Each measurement was performed on 3 to 5 wells replicates.
Wide-field imaging was performed on an inverted Nikon Eclipse Ti2 microscope equipped with a SPECTRA X light engine (Lumencore), 20× objective (NA=0.75, Nikon), and imaged onto a scientific CMOS camera (Hamamatsu ORCA-Flash 4.0). […] A quad bandpass filter (set number: 89000, Chroma) was used along with the appropriate color band from the SPECTRA X light source to image 13AM.

[2] = Quantum yield determination; assay type: physicochemical; conditions: fluorescence quantum yield at saturating Ca2+
Procedure: Example 16: Quantum Yield Determination. Absolute quantum yields (Φ) were measured using a Quantaurus-QY spectrometer (model C11374) from Hamamatsu. This instrument uses an integrating sphere to determine photons absorbed and emitted by a sample. Measurements were carried out using dilute samples (A<0.1) and self-absorption corrections were performed using the instrument software.^27

[3] = UV-Vis and fluorescence spectroscopy; assay type: physicochemical; conditions: in vitro; for λmax: first value of λmax/λem; for λem: second value of λmax/λem
Procedure: (§1) All measurements were taken at ambient temperature (23±2° C.). […] Spectroscopy was performed using 1-cm path length quartz cuvettes (Starna). Absorption measurements were recorded on a Cary Model 100 spectrometer (Varian). Fluorescence measurements spectra were recorded on a Cary Eclipse fluorometer (Varian). Images were processed in ImageJ/Fiji. Data was analyzed and graphs were plotted using Prism (GraphPad). Movie renderings were done using Imaris (Bitplane)
(§2) Example 15: UV-Vis and Fluorescence Spectroscopy, Kd Determination. UV-Vis and fluorescence spectra were measured in a commercial EGTA buffer system (Invitrogen) following the associated protocol. […] For calcium titrations of the HaloTag ligands in the presence of HaloTag protein, the dye was incubated with 1.5 eq of purified HaloTag protein ([…] solution in 75 mM NaCl, 50 mM Tris-HCl, pH 7.4) for 1 h at room temperature. Calcium titrations were then performed using the commercial EGTA buffer system to which 0.1 mg·mL^−1 CHAPS was added. All the calcium titrations were performed in duplicate.

[4] = Calcium titrations in EGTA buffer system (ΔF/F0, Kd determination); assay type: binding; conditions: for Kd: in vitro Ca2+ binding; for ΔF/F0: Ca2+-dependent change in fluorescence over baseline
Procedure: as §1, §2

[5] = system: cultured neurons expressing NES-HaloTag-GFP; conditions: cells expressing NES-HaloTag-GFP; same imaging conditions; normalized to GFP
Procedure: Primary rat hippocampal neurons were prepared as described previously and infected with AAV viruses.^1 Stock solutions of the different calcium indicators were prepared at C=1 mM in DMSO containing 20% Pluronic F-127. Cultured neurons were incubated with the cell-permeant sensors at 37° C. for 30 min (7AM and Calcium Orange-AM) or 2 h (12AM and 13AM) before washing twice with imaging buffer containing the following: 145 mM NaCl, 2.5 mM KCl, 10 mM glucose, 10 mM HEPES, pH 7.4, 2 mM CaCl2), 1 mM MgCl2. Synaptic blockers (10 μM CNQX, 10 μM CPP, 10 μM GABAZINE, and 1 mM MCPG) were added to block ionotropic glutamate, GABA, and metabotropic glutamate receptors.^21 Each measurement was performed on 3 to 5 wells replicates.
Wide-field imaging was performed on an inverted Nikon Eclipse Ti2 microscope equipped with a SPECTRA X light engine (Lumencore), 20× objective (NA=0.75, Nikon), and imaged onto a scientific CMOS camera (Hamamatsu ORCA-Flash 4.0). […]
Brightness comparison: The brightness of 12AM, jRGECO1a and jRCaMP1b in neurons were compared under the same illumination conditions. The fluorescence emission in each field of view was background subtracted and normalized by the emission of the fused EGFP to account for differences in expression levels among neurons.

[6] = system: primary cilium in hRPE1 cells expressing 5HT6-HaloTag; conditions: Ca2+ uncaging with 405 nm light
Procedure: Tet-on 5HT6-HaloTag RPE cells were plated in 8-well Labtek II chambers (Invitrogen) in 10% FBS DMEM:F12 media. The next day, the cells were serum deprived with 0% FBS DMEM:F12 medium with 100 ng/ml doxycycline to induce 5HT6-HaloTag expression. After 24 h of serum deprivation and doxycycline induction, cells were labeled with 1 μM 13AM overnight. After rinsing in DMEM:F12, the cells were loaded with 4 μM NP-EGTA, AM (ThermoFisher N6803) for 1 h. The medium was then replaced by DMEM Fluorobrite (ThermoFisher) for imaging in a 37° C., 5% CO2 chamber on an inverted Zeiss 880 with Airyscan. For each single cilium, 405 nm laser light (100%, 15 mW, 3s) uncaged free Ca^2+ from NP-EGTA in a 50-70 μm^2 area. Airyscan images were acquired at 0.5-0.8 s/stack for a total of 100 stacks (50-80 s) with 633 laser lines (13AM). Calcium uncaging was performed at the 50th stack. Change in intensity values were calculated in ImageJ using a maximum intensity projection series.

[7] = target: HaloTag protein (Rhodococcus rhodochrous, UniProt P0A3G2, A155T/A167V/A172T/A224E/C128F/C176G/D78G/E160K/E257K/H272N/K175M/K195N/L47V/L88M/N227D/P291S/S2A/S58T/T264A/Y273L/Y87F); assay: Calcium titrations in the presence or absence of excess HaloTag protein; assay type: biochemical; conditions: in vitro; saturating [Ca2+]
Procedure: as §2

[8] = known indicator, literature value (ref. 15); saturating Ca2+; cited from earlier work
[9] = known indicator, cited from earlier work
[10] = known indicator, literature value (ref. 15); cited from earlier work
[11] = cultured hippocampal neurons loaded with AM ester

Sequence of HaloTag protein (P0A3G2 other isoform, or with tags, fused parts or gaps with the stated changes): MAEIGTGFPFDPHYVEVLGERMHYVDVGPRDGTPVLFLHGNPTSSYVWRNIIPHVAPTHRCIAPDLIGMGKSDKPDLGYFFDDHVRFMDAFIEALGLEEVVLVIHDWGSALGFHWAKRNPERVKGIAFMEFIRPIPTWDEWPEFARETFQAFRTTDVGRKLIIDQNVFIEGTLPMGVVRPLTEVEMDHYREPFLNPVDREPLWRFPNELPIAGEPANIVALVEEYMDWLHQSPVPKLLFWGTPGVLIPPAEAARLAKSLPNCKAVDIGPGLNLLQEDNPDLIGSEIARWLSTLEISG

3″-BAPTA-JF549 tetra-acetoxymethyl ester [Compound 7AM]
saturating number of APs [1, 11]: 40 APs
ΔF/F0, single AP [1, 11]: 0.20
maximal ΔF/F0 ([1]; cultured hippocampal neurons loaded with AM ester, at saturation): 0.80
brightness compared to cells loaded with 2AM ([1]; cultured neurons): 10 ×
ΔF/F0 compared to cells loaded with 2AM ([1]; cultured neurons): 10 ×

3″-BAPTA-JF549-HaloTag ligand [Compound 12]
ϕsat [2]: 0.78
λmax [3]: 553 nm
λem [3]: 573 nm
Kd [4]: 130 nM
ΔF/F0 ([4]; in vitro): 9.5

3″-BAPTA-JF549-HaloTag ligand tetra acetoxymethyl ester [Compound 12AM]
baseline fluorescence, brighter than jRCaMP1b [5]: 3.6 fold
baseline fluorescence, brighter than jRGECO1a [5]: 7.8 fold

3″-BAPTA-JF646-HaloTag ligand tetra acetoxymethyl ester [Compound 13AM]
ΔF/F0 across the entire cilium [6]: 0.60
ΔF/F0, single AP ([1]; cultured hippocampal neurons expressing NES-HaloTag-GFP): 0.11

O=C(O)CN(CC(=O)O)c1ccccc1OCCOc1cc(NC(=O)c2ccc(-c3c4ccc(=[N+]5CCC5)cc-4oc4cc(N5CCC5)ccc34)c(C(=O)[O-])c2)ccc1N(CC(=O)O)CC(=O)O [Compound 3, 5-BAPTA-JF549]
ϕsat [2]: 0.69
λmax [3]: 554 nm
λem [3]: 579 nm
Kd [4]: 190 nM
ΔF/F0 ([4]; in vitro): 2.3

O=C(O)CN(CC(=O)O)c1ccccc1OCCOc1cc(NC(=O)c2ccc(C(=O)[O-])c(-c3c4ccc(=[N+]5CCC5)cc-4oc4cc(N5CCC5)ccc34)c2)ccc1N(CC(=O)O)CC(=O)O [Compound 4, 6-BAPTA-JF549]
ϕsat [2]: 0.78
λmax [3]: 555 nm
λem [3]: 576 nm
improvement in ΔF/F0 compared to 3 ([4]; in vitro): 2 fold
Kd [4]: 350 nM
ΔF/F0 ([4]; in vitro): 4.6

CN(C(=O)c1cccc(C(=O)O)c1-c1c2ccc(=[N+]3CCC3)cc-2oc2cc(N3CCC3)ccc12)c1ccc(N(CC(=O)O)CC(=O)O)c(OCCOc2ccccc2N(CC(=O)O)CC(=O)O)c1 [Compound 5, 7-MeBAPTA-JF549]
ϕsat [2]: 0.18
λmax [3]: 565 nm
λem [3]: 583 nm
Kd [4]: 570 nM
ΔF/F0 ([4]; in vitro): 14

O=C(O)CN(CC(=O)O)c1ccccc1OCCOc1cc(NC(=O)C2CC/[N+]2=c2/ccc3c(-c4ccccc4C(=O)[O-])c4ccc(N5CCC5)cc4oc-3c2)ccc1N(CC(=O)O)CC(=O)O (stereo not drawn) [Compound 6, 2″-BAPTA-JF549]
ϕsat [2]: 0.45
λmax [3]: 542 nm
λem [3]: 566 nm
Kd [4]: 270 nM
ΔF/F0 ([4]; in vitro): 27.7

O=C(O)CN(CC(=O)O)c1ccccc1OCCOc1cc(NC(=O)C2C[N+](=c3ccc4c(-c5ccccc5C(=O)[O-])c5ccc(N6CCC6)cc5oc-4c3)C2)ccc1N(CC(=O)O)CC(=O)O (stereo not drawn) [Compound 7, 3″-BAPTA-JF549]
ϕsat [2]: 0.75
red-shift of λex and λem relative to compound 1 [3]: 50 nm
λmax [3]: 546 nm
λem [3]: 569 nm
Kd [4]: 310 nM
ΔF/F0 ([4]; in vitro): 15.0

O=C(O)CN(CC(=O)O)c1ccccc1OCCOc1cc(NC(=O)C2CN(c3ccc4c(-c5ccccc5C(=O)[O-])c5ccc(=[N+]6CC(C(=O)Nc7ccc(N(CC(=O)O)CC(=O)O)c(OCCOc8ccccc8N(CC(=O)O)CC(=O)O)c7)C6)cc-5oc4c3)C2)ccc1N(CC(=O)O)CC(=O)O (stereo not drawn) [Compound 8, 3″,3″′-bisBAPTA-JF549]
ϕsat [2]: 0.70
λmax [3]: 543 nm
λem [3]: 566 nm
Kd [4]: 730 nM
ΔF/F0 ([4]; in vitro): 47.0

O=C(O)CN(CC(=O)O)c1ccc(NC(=O)C2CN(c3ccc4c(-c5ccccc5C(=O)O)c5ccc(=[N+]6CCC6)cc-5oc4c3)C2)cc1OCCOc1cc(NC(=O)C2C[N+](=c3ccc4c(-c5ccccc5C(=O)O)c5ccc(N6CCC6)cc5oc-4c3)C2)ccc1N(CC(=O)O)CC(=O)O (stereo not drawn) [Compound 9, 3″-BAPTA-bisJF549]
ϕsat [2]: 0.20
λmax [3]: 512-549 nm
λem [3]: 570 nm
ΔF/F0 ([4]; in vitro): 75.0

O=C(O)CN(CC(=O)O)c1ccccc1OCCOc1cc(NC(=O)C2C[N+](=c3ccc4c(-c5cc(C(=O)NCCOCCOCCCCCCCl)ccc5C(=O)[O-])c5ccc(N6CCC6)cc5oc-4c3)C2)ccc1N(CC(=O)O)CC(=O)O (stereo not drawn) [Compound 12, 3″-BAPTA-JF549-HaloTag ligand]
ϕsat [2]: 0.74
λmax [3]: 550 nm
λem [3]: 574 nm
Kd [4]: 290 nM
ΔF/F0 ([4]; in vitro): 14 and 13.8

C[Si]1(C)c2cc(N3CCC3)ccc2C2(OC(=O)c3ccc(C(=O)NCCOCCOCCCCCCCl)cc32)c2ccc(N3CC(C(=O)Nc4ccc(N(CC(=O)O)CC(=O)O)c(OCCOc5ccccc5N(CC(=O)O)CC(=O)O)c4)C3)cc21 (stereo not drawn) [Compound 13, 3″-BAPTA-JF646-HaloTag ligand]
ϕsat [2]: 0.58
increase in fluorescence upon binding to HaloTag [7]: 2.4 fold
λmax [3]: 646 nm
λem [3]: 666 nm
Kd [4]: 280 nM
ΔF/F0 ([4]; in vitro): 7.8

Calcium Orange [Compound 2]
ϕsat [8]: 0.33
λem ([9]; literature value (ref. 15)): 574 nm
λmax ([9]; literature value (ref. 15)): 549 nm
excitation maxima (λex) ([9]; literature value): 549 nm
Kd [10]: 185 nM
ΔF/F0 [10]: 3

Oregon Green BAPTA-1 [Compound 1]
Kd [10]: 170 nM
ΔF/F0 [10]: 14
